Source: PubChem BioAssay (NCI)
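In this assay, cells in 96-well plates receive the compound at five concentrations for 48 hours. Endpoints are linearly interpolated between the surrounding concentrations. TGI is the concentration that stops growth completely.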

Experiments:
Assay in all cases: DTP human tumour cell line panel, 48 h
[1] = test system: 786-0 renal
[2] = test system: ACHN renal
[3] = test system: SF-268 CNS
[4] = test system: UACC-62 melanoma
[5] = test system: HOP-18 NSCLC
[6] = test system: RXF-631 renal
[7] = test system: SF-539 CNS
[8] = test system: SW-620 colon
[9] = test system: UO-31 renal
[10] = test system: HOP-62 NSCLC
[11] = test system: DLD-1 colon
[12] = test system: SNB-75 CNS
[13] = test system: SR leukemia
[14] = test system: CCRF-CEM leukemia
[15] = test system: HCC-2998 colon
[16] = test system: HCT-116 colon
[17] = test system: HL-60(TB) leukemia
[18] = test system: OVCAR-3 ovarian
[19] = test system: TK-10 renal
[20] = test system: M19-MEL melanoma
[21] = test system: OVCAR-4 ovarian
[22] = test system: HCT-15 colon
[23] = test system: KM20L2 colon
[24] = test system: SNB-78 CNS
[25] = test system: OVCAR-8 ovarian
[26] = test system: HT29 colon
[27] = test system: SF-295 CNS
[28] = test system: NCI-H23 lung
[29] = test system: IGROV1 ovarian
[30] = test system: EKVX NSCLC
[31] = test system: SK-MEL-2 melanoma
[32] = test system: A498 renal
[33] = test system: LXFL 529 NSCLC
[34] = test system: DMS 273 small cell lung
[35] = test system: RXF 393 renal
[36] = test system: SK-MEL-28 melanoma
[37] = test system: U251 CNS
[38] = test system: RPMI-8226 leukemia
[39] = test system: M14 melanoma
[40] = test system: MOLT-4 leukemia
[41] = test system: SK-OV-3 ovarian
[42] = test system: OVCAR-5 ovarian
[43] = test system: UACC-257 melanoma
[44] = test system: SN12C renal
[45] = test system: HOP-92 NSCLC
[46] = test system: SK-MEL-5 melanoma
[47] = test system: KM12 colon
[48] = test system: NCI-H522 lung
[49] = test system: NCI-H460 lung
[50] = test system: NCI-H226 lung
[51] = test system: K-562 leukemia
[52] = test system: MALME-3M melanoma
[53] = test system: A549 NSCLC
[54] = test system: COLO 205 colon
[55] = test system: CAKI-1 renal
[56] = test system: LOX IMVI melanoma
[57] = test system: SNB-19 CNS
[58] = test system: DMS 114 small cell lung
[59] = test system: XF 498 CNS

Measured: TGI

COc1ccc2c(c1)CCC1C3(CCCC21C)OCCO3 (configuration not stated)
46.3 µM: [49]
38.1 µM: [1]
35.3 µM: [36] | [45]
35.7 µM: [50]
60.9 µM: [41]
73.9 µM: [24]
40.6 µM: [14]
45.4 µM: [13]
26.3 µM: [7]
30.5 µM: [16] | [44]
39.2 µM: [23]
78.9 µM: [2]
23.5 µM: [31]
43.2 µM: [17]
35.4 µM: [54]
36.3 µM: [39]
50.4 µM: [25]
19.9 µM: [3]
33.5 µM: [26]
51.7 µM: [47]
79.4 µM: [29]
34.5 µM: [11]
60.3 µM: [12]
69.7 µM: [53]
29.4 µM: [37]
35.5 µM: [18]
61.2 µM: [38]
96.2 µM: [8]
42.1 µM: [51]
82.3 µM: [30]
40.3 µM: [34]
37.7 µM: [20]
53.5 µM: [40]
44.3 µM: [15]
30.4 µM: [56]
37.4 µM: [48]
38 µM: [4]
34.2 µM: [22] | [28]
64.8 µM: [5]
31 µM: [9]
44.9 µM: [33]
28.4 µM: [10]
31.1 µM: [35] | [46]
40.8 µM: [27]
62.1 µM: [43]
58.8 µM: [52]
82.6 µM: [32]
not listed: [58] | [59]
> 100 µM: all other assays above

O=c1cccccc1NCCCNc1cccccc1=O
39.2 µM: [52]
32.3 µM: [44]
not listed: [5] | [11] | [12] | [15] | [19] | [21] | [32] | [36] | [46]
> 100 µM: all other assays above

Cc1ccc(N(C(=O)CC(=O)NN)C(=O)c2ccccc2Cl)cc1
not listed: [13] | [19] | [31] | [46]
> 100 µM: all other assays above
